In PubChem BioAssay AID2060362 (Molecular Pharmacology Branch, DTP, NCI, 2025):
Where “and” joins values, the source holds several entries; their conditions need not be identical. Equal entries are not always repeated.

Tested on: 128128-338-R-J1-PDC spheroids, viability % test/control
Assay: Anticancer human tumor 128128-338-R-J1-PDC patient-derived melanoma cell line growth inhibition [TAK]
Details: spheroids with HUVEC and MSC; for viability, T/C: stronger effect = lower value
Summary of the method: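 Spheroids of 60% malignant cells, 25% HUVEC and 15% hMSC were exposed to targeted agents combined with TAK-243 or ipatasertib. Concentrations started at or near clinical Cmax (10 microM if unknown) and descended in half-log steps.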

[1] = curve of first compound, second compound 0.3 µM
[2] = curve of first compound, second compound 0.949 µM
[3] = curve of first compound, second compound 3 µM
[4] = curve of first compound, second compound 9.49 µM
[5] = curve of first compound, second compound 30 µM
[6] = second compound 0.3 µM, first compound 0.0316 µM
[7] = second compound 0.3 µM, first compound 0.1 µM
[8] = second compound 0.949 µM, first compound 0.0316 µM
[9] = second compound 0.949 µM, first compound 0.1 µM
[10] = second compound 3 µM, first compound 0.0316 µM
[11] = second compound 3 µM, first compound 0.1 µM
[12] = second compound 9.49 µM, first compound 0.0316 µM
[13] = second compound 9.49 µM, first compound 0.1 µM
[14] = second compound 30 µM, first compound 0.0316 µM
[15] = second compound 30 µM, first compound 0.1 µM
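Throughout, for viability, T/C: 100% = DMSO vehicle wells.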

`Cn1cnc2c(F)c(Nc3ccc(Br)cc3Cl)c(C(=O)NOCCO)cc21` + CC(C)NCC(C(=O)N1CCN(c2ncnc3c2C(C)CC3O)CC1)c1ccc(Cl)cc1 was tested, and the IC50 [1] was 91.3 nM, the IC50 [2] was 77.9 nM and the IC50 [3] was 54.8 nM. The IC50 [4] was 15.1 nM, the IC50 [5] was < 9.49 nM and the viability, T/C (second compound 0.3 µM, first compound 0.00949 µM) was 92.9%. The viability, T/C (second compound 0.3 µM, first compound 0.03 µM) was 83.4%, the viability, T/C (second compound 0.3 µM, first compound 0.0949 µM) was 48.7% and the viability, T/C (second compound 0.3 µM, first compound 0.3 µM) was 13.6%. It also gave a viability, T/C (second compound 0.3 µM, first compound 0.949 µM) of 1.29%, a viability, T/C (second compound 0.3 µM, first compound 3 µM) of 1.54% and a viability, T/C (second compound 0.949 µM, first compound 0.00949 µM) of 85.7%. For the same compound, the viability, T/C (second compound 0.949 µM, first compound 0.03 µM) was 76.6%, the viability, T/C (second compound 0.949 µM, first compound 0.0949 µM) was 45% and the viability, T/C (second compound 0.949 µM, first compound 0.3 µM) was 3.97%. For the same compound, the viability, T/C (second compound 0.949 µM, first compound 0.949 µM) was 0.63%, the viability, T/C (second compound 0.949 µM, first compound 3 µM) was 0.7% and the viability, T/C (second compound 3 µM, first compound 0.00949 µM) was 77%. For the same compound, the viability, T/C (second compound 3 µM, first compound 0.03 µM) was 76.2%, the viability, T/C (second compound 3 µM, first compound 0.0949 µM) was 26.3% and the viability, T/C (second compound 3 µM, first compound 0.3 µM) was 1.91%. It also gave a viability, T/C (second compound 3 µM, first compound 0.949 µM) of 0.35%, a viability, T/C (second compound 3 µM, first compound 3 µM) of 0.16% and a viability, T/C (second compound 9.49 µM, first compound 0.00949 µM) of 63%. It also gave a viability, T/C (second compound 9.49 µM, first compound 0.03 µM) of 30.6%, a viability, T/C (second compound 9.49 µM, first compound 0.0949 µM) of 10.7% and a viability, T/C (second compound 9.49 µM, first compound 0.3 µM) of 0.42%. The viability, T/C (second compound 9.49 µM, first compound 0.949 µM) was 0.35%, the viability, T/C (second compound 9.49 µM, first compound 3 µM) was 0.17% and the viability, T/C (second compound 30 µM, first compound 0.00949 µM) was 16.7%. The viability, T/C (second compound 30 µM, first compound 0.03 µM) was 4.78%, the viability, T/C (second compound 30 µM, first compound 0.0949 µM) was 0.34% and the viability, T/C (second compound 30 µM, first compound 0.3 µM) was 0.25%. It also gave a viability, T/C (second compound 30 µM, first compound 0.949 µM) of 0.15% and a viability, T/C (second compound 30 µM, first compound 3 µM) of 0.13%.

In the case of `CC(C)CC(NC(=O)C(Cc1ccccc1)NC(=O)c1cnccn1)B(O)O` (configuration not stated), the viability, T/C (compound 31.6 pM) is reported as 107% and 105%, the viability, T/C (compound 0.0001 µM) is reported as 108% and 96.7% and the viability, T/C (compound 0.000316 µM) is reported as 99.3% and 93%. For the same compound, the viability, T/C (compound 0.001 µM) was 102% and 90.6%, the viability, T/C (compound 0.00316 µM) was 6.95% and 5.71% and the viability, T/C (compound 0.01 µM) was 0.2% and 0.52%. For the same compound, the IC50 (curve of compound) was 1.88 nM and 1.73 nM.

`CC(C)(C)c1nc(-c2cccc(NS(=O)(=O)c3c(F)cccc3F)c2F)c(-c2ccnc(N)n2)s1` + CC(C)NCC(C(=O)N1CCN(c2ncnc3c2C(C)CC3O)CC1)c1ccc(Cl)cc1 was tested, and the IC50 [1] was 46 nM, the IC50 [2] was 41.2 nM and the IC50 [3] was < 31.6 nM. The IC50 [4] was < 31.6 nM, the IC50 [5] was < 31.6 nM and the viability, T/C [6] was 61%. For the same compound, the viability, T/C [7] was 27.1%, the viability, T/C (second compound 0.3 µM, first compound 0.316 µM) was 6.08% and the viability, T/C (second compound 0.3 µM, first compound 1 µM) was 1.93%. The viability, T/C (second compound 0.3 µM, first compound 3.16 µM) was 1.83%, the viability, T/C (second compound 0.3 µM, first compound 10 µM) was 8.83% and the viability, T/C [8] was 58.6%. It also gave a viability, T/C [9] of 21%, a viability, T/C (second compound 0.949 µM, first compound 0.316 µM) of 2.85% and a viability, T/C (second compound 0.949 µM, first compound 1 µM) of 1.56%. It also gave a viability, T/C (second compound 0.949 µM, first compound 3.16 µM) of 0.98%, a viability, T/C (second compound 0.949 µM, first compound 10 µM) of 2.06% and a viability, T/C [10] of 29.6%. It also gave a viability, T/C [11] of 8.97%, a viability, T/C (second compound 3 µM, first compound 0.316 µM) of 1.74% and a viability, T/C (second compound 3 µM, first compound 1 µM) of 1.17%. The viability, T/C (second compound 3 µM, first compound 3.16 µM) was 0.79%, the viability, T/C (second compound 3 µM, first compound 10 µM) was 0.99% and the viability, T/C [12] was 12.7%. For the same compound, the viability, T/C [13] was 1.27%, the viability, T/C (second compound 9.49 µM, first compound 0.316 µM) was 1.2% and the viability, T/C (second compound 9.49 µM, first compound 1 µM) was 0.7%. For the same compound, the viability, T/C (second compound 9.49 µM, first compound 3.16 µM) was 0.6%, the viability, T/C (second compound 9.49 µM, first compound 10 µM) was 0.64% and the viability, T/C [14] was 0.69%. It also gave a viability, T/C [15] of 0.56%, a viability, T/C (second compound 30 µM, first compound 0.316 µM) of 0.78% and a viability, T/C (second compound 30 µM, first compound 1 µM) of 0.44%. It also gave a viability, T/C (second compound 30 µM, first compound 3.16 µM) of 0.34% and a viability, T/C (second compound 30 µM, first compound 10 µM) of 0.42%.

`CC(C)n1nc(-c2ccc3oc(N)nc3c2)c2c(N)ncnc21` + CC(C)NCC(C(=O)N1CCN(c2ncnc3c2C(C)CC3O)CC1)c1ccc(Cl)cc1 gave an IC50 [1] of 15.4 nM, an IC50 [2] of 14.1 nM and an IC50 [3] of 7.82 nM. The IC50 [4] was 1.81 nM, the IC50 [5] was < 0.316 nM and the viability, T/C (second compound 0.3 µM, first compound 0.000316 µM) was 96%. For the same compound, the viability, T/C (second compound 0.3 µM, first compound 0.001 µM) was 96.5%, the viability, T/C (second compound 0.3 µM, first compound 0.00316 µM) was 89.6% and the viability, T/C (second compound 0.3 µM, first compound 0.01 µM) was 59.2%. For the same compound, the viability, T/C [6] was 31.3%, the viability, T/C [7] was 6.8% and the viability, T/C (second compound 0.949 µM, first compound 0.000316 µM) was 88.9%. For the same compound, the viability, T/C (second compound 0.949 µM, first compound 0.001 µM) was 95.8%, the viability, T/C (second compound 0.949 µM, first compound 0.00316 µM) was 80.1% and the viability, T/C (second compound 0.949 µM, first compound 0.01 µM) was 58.4%. It also gave a viability, T/C [8] of 29%, a viability, T/C [9] of 4.5% and a viability, T/C (second compound 3 µM, first compound 0.000316 µM) of 88.5%. The viability, T/C (second compound 3 µM, first compound 0.001 µM) was 77.5%, the viability, T/C (second compound 3 µM, first compound 0.00316 µM) was 68.5% and the viability, T/C (second compound 3 µM, first compound 0.01 µM) was 47%. The viability, T/C [10] was 18%, the viability, T/C [11] was 4.85% and the viability, T/C (second compound 9.49 µM, first compound 0.000316 µM) was 66.6%. For the same compound, the viability, T/C (second compound 9.49 µM, first compound 0.001 µM) was 57.3%, the viability, T/C (second compound 9.49 µM, first compound 0.00316 µM) was 43% and the viability, T/C (second compound 9.49 µM, first compound 0.01 µM) was 17.2%. It also gave a viability, T/C [12] of 5.97%, a viability, T/C [13] of 0.5% and a viability, T/C (second compound 30 µM, first compound 0.000316 µM) of 16.4%. The viability, T/C (second compound 30 µM, first compound 0.001 µM) was 18.2%, the viability, T/C (second compound 30 µM, first compound 0.00316 µM) was 11.7% and the viability, T/C (second compound 30 µM, first compound 0.01 µM) was 2.86%. For the same compound, the viability, T/C [14] was 0.38% and the viability, T/C [15] was 0.2%.
